Test [1] has as its system SOD1^G93A-transfected Neuro2a cells. Nature of the test: Cell viability of SOD1G93A-transfected Neuro2a cells (colorimetric assay). The note with it: 10 µM. The format is cell-based. An excerpt:
The Golgi apparatus is affected in MNs from ALS patients and in cells overexpressing mutant SOD1 forms[35]–[37]. We transiently transfected Neuro2a cells with plasmids encoding SOD1^G93A before treatment with compound 2a. […] We next determined the viability of Neuro2a cells transfected with SOD1^G93A and exposed to compound 2a using a colorimetric assay. Controls cells received LacZ plasmids. […] We observed a slight, but not significant, reduction of cell viability in […] Neuro2a cells (Fig. 3b). […] The increased cell viability provided by compound 2a could result from unknown, nonspecific off-target effects. Therefore, we used plasmids encoding VPS35 to increase/stabilize the retromer complex. […] However, this phenotype was reverted co-transfecting VPS35 and SOD1^G93A plasmids (Fig. 3c).
Having observed a marked improvement of viability in SOD1^G93A-transfected Neuro2a cells with VPS35 gain of function, we investigated the effect of VPS35 loss of function. We transfected Neuro2a cells with RNAi plasmids encoding a siRNA duplex for VPS35, to knockdown VPS35 and disrupt the retromer assembly. […] By including Sh56 plasmids in the transfection mix, we worsened this phenotype (Fig. 3d). […] We next assayed cytotoxicity by measuring lactate dehydrogenase (LDH) release with a LDH-Glo™ cytotoxicity assay. […]

For another test, the target named is VPS29-VPS35 heterodimer (Homo sapiens, UniProt Q96QK1+Q9UBQ0). Kind of test: STD-NMR and WaterLogsy-NMR ligand-based binding experiments. The note with it: 2a 500 μM, VPS29-VPS35 10 μM. The method, then:
We used a ligand-based NMR approach to localize the binding between compound 2a and the VPS29-VPS35 heterodimer. These techniques provide binding information without requiring any isotopic labeling of the proteins. Particularly, Saturation Transfer Difference NMR (STD-NMR)[32] and WaterLogsy-NMR (WL-NMR)[33] experiments were acquired in buffer solutions containing a large excess of compound 2a (500μM) with respect to VPS29-VPS35 (10 μM). Both STD-NMR and WL-NMR focus on the NMR signals of the ligand and utilize the magnetization transfer by the Nuclear Overhauser Effect (NOE) between protein and ligand. STD-NMR experiments are carried out by subtraction of a 1D ^1H spectrum where the protein protons are selectively irradiated (on-resonance spectrum) from a spectrum in which the protein is not saturated (off-resonance spectrum).
WL-NMR entails magnetization transfer to the ligand from either bulk water via a macromolecule, and/or the exchangeable protons and the water molecules present in the binding site. Positive peaks for proton resonances of the ligand in the WL-NMR spectrum are observed for binders in presence of the protein. […] As negative control, STD-NMR and WL-NMR experiments were performed for compound 2a in absence of the heterodimer. The absence of proton signals in the aromatic zone and the presence of negative signals in STD-NMR (Fig. 2k) and WL-NMR (Fig. 2l) spectra, respectively, confirms the binding between compound 2a and the VPS29-VPS35 heterodimer. Unfortunately, STD- and WL-NMR competition experiments between 2a and R55/1 could not be performed since the latter compound was not stable in our experimental conditions.
NMR spectra were acquired at 298K on a Bruker Avance NEO 700 MHz spectrometer equipped with a Z-gradient cryoprobe. The spectra were processed with the Bruker TOPSPIN 4.0.5 software packages. […] 1D ^1H spectra were recorded using a 1 s presaturation pulse with a B1 power of 200 Hz. […]

Regarding `NC(N)=N/N=C/c1cccc(/C=N/N=C(N)N)c1` [compound 2a, phenyl-1,3-bis-guanylhydrazone], the cell viability entry in test [1] is “cell viability was restored”. For the same compound, on VPS29-VPS35 heterodimer, the STD-NMR binding result was “interaction between the ligand and the protein complex”; the WL-NMR binding result is recorded as “binds to the protein complex”.

Values taken from paper PMC7395176, “Retromer stabilization results in neuroprotection in a model of Amyotrophic Lateral Sclerosis” (Nature Communications, 2020).
